Test results as given in the NIST ThermoML archive (doi:10.1021/je100610v).

Experiment: molar heat capacity at constant pressure; xn = mol fraction of the nth substance listed
Conditions: 101 kPa, Liquid

ClCCCCCCCl [1,6-dichlorohexane] + CCCCCCC
molar heat capacity at constant pressure [J/K/mol]
Conditions	x1 = 0.1033	x1 = 0.2005	x1 = 0.3004	x1 = 0.397	x1 = 0.5025	x1 = 0.5978	x1 = 0.7012	x1 = 0.7975	x1 = 0.8993	x1 = 1
293.15 K	224.18	225.58	226.93	228.73	230.53	232.22	233.79	235.58	237.46	239.21
294.15 K	224.47	225.71	227.22	229.08	230.89	232.55	234	235.86	237.73	239.5
295.15 K	224.85	226.27	227.61	229.51	231.34	232.94	234.33	236.23	238.1	239.69
296.15 K	225.28	226.73	227.98	229.89	231.84	233.25	234.73	236.51	238.39	240.02
297.15 K	225.7	227.04	228.31	230.27	231.98	233.48	235.05	236.81	238.57	240.35
298.15 K	226.02	227.35	228.65	230.41	232.13	233.77	235.36	237.1	238.92	240.64
299.15 K	226.42	227.84	228.96	230.75	232.24	234	235.65	237.33	239.06	240.85
300.15 K	226.82	228.08	229.21	231.06	232.49	234.22	236.05	237.68	239.39	241.15
301.15 K	227.16	228.49	229.61	231.57	232.94	234.6	236.34	238.04	239.79	241.46
302.15 K	227.48	228.83	230	231.8	233.35	234.96	236.63	238.29	240.08	241.8
303.15 K	227.86	229.13	230.36	232.08	233.73	235.31	236.93	238.61	240.37	242.06
304.15 K	228.19	229.46	230.7	232.56	234.04	235.48	237.2	238.86	240.64	242.34
305.15 K	228.57	229.83	230.91	232.74	234.33	235.88	237.53	239.21	240.92	242.62
306.15 K	228.88	230.1	231.36	233.13	234.4	236.03	237.84	239.44	241.2	242.83
307.15 K	229.3	230.51	231.65	233.51	235.07	236.5	238.18	239.76	241.48	243.21
308.15 K	229.71	230.91	232.08	233.76	235.33	236.85	238.49	240.12	241.83	243.49
309.15 K	230.05	231.19	232.35	234.03	235.45	237.17	238.74	240.37	242.06	243.73
310.15 K	230.4	231.55	232.73	234.35	235.77	237.52	239.07	240.64	242.36	244
311.15 K	230.86	231.97	233.11	234.88	236.41	237.89	239.43	241.08	242.73	244.35
312.15 K	231.16	232.33	233.45	235.01	236.75	238.16	239.72	241.32	243.02	244.68
313.15 K	231.55	232.68	233.79	235.43	236.93	238.39	240.06	241.64	243.28	244.91
